For test [1], the target named is T1, glycogen synthase kinase-3 β (GSK-3β) (Homo sapiens, UniProt P49841).
T1 construct: gene GSK3B
Description: Z′-LYTE FRET peptide biochemical kinase assay, ATP at Km, concentration-dependent.

The next test addresses T2, aurora kinase A (Homo sapiens, UniProt O14965).
T2 construct: gene AURKA
T2 sequence (O14965 1-403): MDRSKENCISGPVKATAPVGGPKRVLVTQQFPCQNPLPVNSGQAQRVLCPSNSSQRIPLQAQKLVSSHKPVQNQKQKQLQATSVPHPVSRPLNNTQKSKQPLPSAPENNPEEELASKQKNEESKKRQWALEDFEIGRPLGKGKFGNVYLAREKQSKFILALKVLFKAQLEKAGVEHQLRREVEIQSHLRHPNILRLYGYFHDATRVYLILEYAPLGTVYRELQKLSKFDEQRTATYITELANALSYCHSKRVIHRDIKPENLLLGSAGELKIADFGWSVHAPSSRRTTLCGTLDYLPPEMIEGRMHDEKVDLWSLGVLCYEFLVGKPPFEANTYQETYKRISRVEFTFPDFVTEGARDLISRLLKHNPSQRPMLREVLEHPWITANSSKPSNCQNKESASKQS
The description is as above.

The text below walks through data of publication PMC6717215, “Chemical characterization and biological activity data for a novel indirubin derivative, LDD-1819” (Data in Brief, 2019).

Counter-ions that a name gives are not always drawn.

T1 sequence (P49841 whole entry): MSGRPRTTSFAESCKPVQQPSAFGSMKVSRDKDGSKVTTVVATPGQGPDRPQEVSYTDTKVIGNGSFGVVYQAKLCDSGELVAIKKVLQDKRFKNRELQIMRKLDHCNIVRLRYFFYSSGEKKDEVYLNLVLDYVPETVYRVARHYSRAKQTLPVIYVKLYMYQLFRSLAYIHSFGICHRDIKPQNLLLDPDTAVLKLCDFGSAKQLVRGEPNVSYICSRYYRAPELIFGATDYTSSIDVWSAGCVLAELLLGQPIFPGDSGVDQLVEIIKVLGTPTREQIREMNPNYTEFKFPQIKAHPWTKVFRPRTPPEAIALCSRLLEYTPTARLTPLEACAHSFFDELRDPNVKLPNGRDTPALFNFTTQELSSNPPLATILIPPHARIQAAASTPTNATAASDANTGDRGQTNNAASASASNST

Broadly, the IC50 is the concentration that gives 50% inhibition. Read a low IC50 as higher potency. As for `NCCO/N=C1/C(=C2/C(=O)Nc3ccc([N+](=O)[O-])cc32)Nc2ccc(O)cc21` [LDD-1819, (2Z,3E)-3-((2-aminoethoxy)imino)-5-hydroxy-5′-nitro-[2,3′-biindolinylidene]-2′-one hydrochloride], the IC50 in test [1] worked out at 5.46 nM; against aurora kinase A, 222 nM.
